The text below walks through data of patent US20250032623A1, “HETEROBIFUNCTIONAL COMPOUNDS AND THEIR USE IN TREATING DISEASE” (HALDA THERAPEUTICS OPCO, INC., priority 2021, published 2025).

The structures appear in SMILES notation.

Assay [1] addresses T1, EGFR T790M, L858R (amino acids 669-1011 Accession Number NP_005219.2) (Homo sapiens, UniProt P00533, L858R/T790M).
T1 construct: purchased Eurofins Discovery; host or cells: mammalian cells (HEK-293)
Nature of the assay: KdELECT binding assay (Eurofins Discovery), EGFR T790M, L858R. The conditions noted are these: read-out: EGFR DM Kd. Here is the method: (§1) Exemplary compounds were tested for ability to bind to EGFR WT (amino acids 669-1011, Accession Number NP_005219.2) or EGFR T790M, L858R (amino acids 669-1011 Accession Number NP_005219.2) expressed from bacteria or mammalian cells, respectively. Compounds were tested using the KdELECT assay at Eurofins Discovery.
(§2) Kinase-tagged T7 phage strains were prepared in an E. coli host derived from the BL21 strain. E. coli were grown to log-phase and infected with T7 phage and incubated with shaking at 32° C. until lysis. The lysates were centrifuged and filtered to remove cell debris. The remaining kinases were produced in HEK-293 cells and subsequently tagged with DNA for qPCR detection. Streptavidin-coated magnetic beads were treated with biotinylated small molecule ligands for 30 minutes at room temperature to generate affinity resins for kinase assays. The liganded beads were blocked with excess biotin and washed with blocking buffer (SeaBlock (Pierce), 1% BSA, 0.05% Tween 20, 1 mM DTT) to remove unbound ligand and to reduce non-specific binding. Binding reactions were assembled by combining kinases, liganded affinity beads, and test compounds in 1× binding buffer (20% SeaBlock, 0.17×PBS, 0.05% Tween 20, 6 mM DTT). Test compounds were prepared as 111× stocks in 100% DMSO. Kd values were determined using an 11-point 3-fold compound dilution series with three DMSO control points. All compounds for Kd measurements are distributed by acoustic transfer (non-contact dispensing) in 100% DMSO. The compounds were then diluted directly into the assays such that the final concentration of DMSO was 0.9%. All reactions performed in polypropylene 384-well plate. Each was a final volume of 0.02 mL. The assay plates were incubated at room temperature with shaking for 1 hour and the affinity beads were washed with wash buffer (1× PBS, 0.05% Tween 20). The beads were then re-suspended in elution buffer (1× PBS, 0.05% Tween 20, 0.5 μM nonbiotinylated affinity ligand) and incubated at room temperature with shaking for 30 minutes. The kinase concentration in the eluates was measured by qPCR.

The target in assay [2] is T2, EGFR WT (amino acids 669-1011, Accession Number NP_005219.2) (Homo sapiens, UniProt P00533).
T2 construct: purchased Eurofins Discovery; host or cells: bacteria (E. coli, BL21-derived, T7 phage)
T2 sequence (P00533 669-1011): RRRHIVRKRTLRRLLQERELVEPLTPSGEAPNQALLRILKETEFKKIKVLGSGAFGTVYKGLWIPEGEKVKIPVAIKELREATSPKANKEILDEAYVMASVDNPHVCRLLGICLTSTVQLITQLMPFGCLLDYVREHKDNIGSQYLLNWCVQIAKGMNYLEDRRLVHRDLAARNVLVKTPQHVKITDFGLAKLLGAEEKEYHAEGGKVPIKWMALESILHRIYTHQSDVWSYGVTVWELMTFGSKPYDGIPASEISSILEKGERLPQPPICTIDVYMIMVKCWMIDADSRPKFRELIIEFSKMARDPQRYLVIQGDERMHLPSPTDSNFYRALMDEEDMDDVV
Nature of the assay: KdELECT binding assay (Eurofins Discovery), EGFR WT. Here is the method:
as §1, §2

The test system of the next assay is HeLa cells. The assay can be described thus: Cellular growth inhibition assay (CellTiter-Glo), HeLa cells. The assay is classed as cell-based. The conditions noted are these: Homo sapiens, 72 h, three days compound treatment, CellTiter-Glo 2.0, read-out: CTG HELA GI50. How it is done:
Exemplary compounds were tested for ability to inhibit the proliferation of HEK293 cells or HeLa cells.
HEK293 and HeLa cells were cultured in DMEM medium supplemented with 10% fetal bovine serum and 1% Penn/Strep. Cells were seeded in white 384-well plates at 500 cells/well in […] complete medium. Following seeding, plates were spun at 300×g for three minutes and cultured at 37° C. with 5% CO2 in a humidified tissue culture incubator.
After 24 hours, compounds were titrated in 100% DMSO and diluted in complete cell culture medium. […] of compound/media mixture was added to cells to bring total volume in well to […]. DMSO alone was used as a negative control. P lates were then spun at 300×g for three minutes and stored at 37° C. with 5% CO2 for three days.
On Day 0 and Day 3 of compound treatment, cell viability was quantified with CellTiter-Glo 2.0 reagent (Promega). After equilibrating microplates at room temperature for 30 minutes, 25 μL CellTiter-Glo 2.0 reagent was dispensed into each well to bring total volume to […]. Plates were mixed on shaker for 2 minutes at 500 rpm, followed by a 10-minute incubation at room temperature. Following a quick spin, luminescence readings were measured with an EnVision Plate Reader. Data was normalized to DMSO treated Day 0 and Day 3 readings. A four-parameter non-linear regression curve fit was applied to dose-response data in GraphPad Prism data analysis software to determine the half maximal growth inhibitory concentration (GI50) for each compound.

For another assay, the target named is T3, EGFR (Homo sapiens, UniProt P00533).
T3 construct: purchased
T3 sequence (P00533 25-1210): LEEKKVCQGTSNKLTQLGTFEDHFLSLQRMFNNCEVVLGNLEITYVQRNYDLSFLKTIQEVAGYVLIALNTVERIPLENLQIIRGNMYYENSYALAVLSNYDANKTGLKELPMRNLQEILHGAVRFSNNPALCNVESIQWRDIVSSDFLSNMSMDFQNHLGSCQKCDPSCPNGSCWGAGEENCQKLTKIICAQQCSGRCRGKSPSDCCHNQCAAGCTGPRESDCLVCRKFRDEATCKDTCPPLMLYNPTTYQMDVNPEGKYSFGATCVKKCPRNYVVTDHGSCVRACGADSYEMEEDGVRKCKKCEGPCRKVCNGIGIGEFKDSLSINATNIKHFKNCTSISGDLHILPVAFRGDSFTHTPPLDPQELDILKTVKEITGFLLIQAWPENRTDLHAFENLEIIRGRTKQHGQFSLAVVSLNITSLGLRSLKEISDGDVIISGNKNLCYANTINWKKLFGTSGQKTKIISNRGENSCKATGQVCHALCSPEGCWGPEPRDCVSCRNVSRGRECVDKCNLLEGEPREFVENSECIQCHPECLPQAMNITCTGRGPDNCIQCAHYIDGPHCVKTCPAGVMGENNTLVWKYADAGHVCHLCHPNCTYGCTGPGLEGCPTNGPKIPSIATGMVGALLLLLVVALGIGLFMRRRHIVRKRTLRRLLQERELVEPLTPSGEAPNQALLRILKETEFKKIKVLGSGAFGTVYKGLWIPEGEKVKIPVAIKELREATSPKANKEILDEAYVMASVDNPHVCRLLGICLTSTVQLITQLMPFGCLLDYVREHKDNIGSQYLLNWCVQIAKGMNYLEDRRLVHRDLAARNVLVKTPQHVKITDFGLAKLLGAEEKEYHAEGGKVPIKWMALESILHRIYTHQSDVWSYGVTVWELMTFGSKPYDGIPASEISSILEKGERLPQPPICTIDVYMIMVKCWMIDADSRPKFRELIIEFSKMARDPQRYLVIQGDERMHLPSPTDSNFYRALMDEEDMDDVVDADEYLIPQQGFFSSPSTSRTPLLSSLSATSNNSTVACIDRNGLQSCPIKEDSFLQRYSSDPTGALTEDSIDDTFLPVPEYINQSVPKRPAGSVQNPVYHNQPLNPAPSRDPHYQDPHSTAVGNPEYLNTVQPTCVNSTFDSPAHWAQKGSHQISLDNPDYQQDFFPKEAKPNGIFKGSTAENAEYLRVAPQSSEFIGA
Nature of the assay: KdELECT binding assay, EGFR. How it is done:
Exemplary compounds were tested for ability to bind to EGFR.
as §2, with “Compounds were tested using a KdELECT assay. Kinase-tagged” for “Kinase-tagged”

For a further assay, the system named is HEK293 cells. Nature of the assay: Cellular growth inhibition assay (CellTiter-Glo), HEK293 cells. Format: cell-based. Particulars: Homo sapiens, 72 h, three days compound treatment, CellTiter-Glo 2.0, read-out: CTG HEK293 GI50. A digest of the protocol: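 HEK293 or HeLa cells seeded at 500 cells/well in DMEM with 10% FBS, treated after 24 h with titrated compound for three days at 37 °C, 5% CO2. CellTiter-Glo 2.0 luminescence read on Day 0 and Day 3, normalized to DMSO, four-parameter fit giving GI50.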

T1 sequence (P00533 669-1011 T790M/L858R): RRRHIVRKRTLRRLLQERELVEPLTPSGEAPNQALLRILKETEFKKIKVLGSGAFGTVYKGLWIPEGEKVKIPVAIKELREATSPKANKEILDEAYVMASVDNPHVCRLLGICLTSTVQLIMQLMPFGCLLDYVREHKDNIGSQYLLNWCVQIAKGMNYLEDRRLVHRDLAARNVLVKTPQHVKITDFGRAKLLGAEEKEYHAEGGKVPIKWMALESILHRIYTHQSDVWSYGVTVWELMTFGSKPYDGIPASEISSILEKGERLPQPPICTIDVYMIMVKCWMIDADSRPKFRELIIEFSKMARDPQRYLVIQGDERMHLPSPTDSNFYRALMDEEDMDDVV

`C=CC(=O)Nc1cc(Nc2nccc(-c3cn(C)c4ccccc34)n2)c(OC)cc1N(C)CCN(C)CCOCCOCCOCCOCCON(C)C(=O)N1N=C(c2cc(F)ccc2F)SC1(CCCN)c1ccccc1` (centres unmarked) [Compound I-67]: the dissociation constant (Kd) in assay [1] was less than 50 nM; in assay [2], 50 to 500 nM; on EGFR, less than 50 nM. The GI50 with HeLa cells and in the assay with HEK293 cells was 500 to 1500 nM throughout.
As to `C=CC(=O)Nc1cc(Nc2nccc(-c3cn(C)c4ccccc34)n2)c(OC)cc1N(C)CCN(C)CCOCCOCCOCCOCCOCCOCCOCCOCCON(C)C(=O)N1N=C(c2cc(F)ccc2F)SC1(CCCN)c1ccccc1` (centres unmarked) [Compound I-69], the Kd in assay [1] was less than 50 nM; in assay [2], 500 to 2500 nM; at EGFR, less than 50 nM. Besides, the GI50 in the assay on HeLa cells was less than 500 nM; in the assay on HEK293 cells it was 500 to 1500 nM.
For the molecule `CC[C@@H]1C(=O)N(C)c2cnc(Nc3ccc(C(=O)NCCOCCOCCOCCOCCOCCOCCN(C)C/C=C/C(=O)NC4CN(c5nc(Nc6cn(C)nc6OC)c6ncn(C)c6n5)C[C@H]4F)cc3OC)nc2N1C1CCCC1` (stereo partly drawn) [Compound I-121, 4-[[(7R)-8-cyclopentyl-7-ethyl-5-methyl-6-oxo-7H-pteridin-2-yl]amino]-N-[2-[2-[2-[2-[2-[2-[2-[[(E)-4-[1[(3R,4R)-4-fluoro-1-1[6-1[(3-methoxy-1-methyl-pyrazol-4-yl)amino]-9-methyl-purin-2-yl]pyrrolidin-3-yl]amino]-4-oxo-but-2-enyl]-methyl-amino]ethoxy]ethoxy]ethoxy]ethoxy]ethoxy]ethoxy]ethyl]-3-methoxy-benzamide], the Kd fell in the range of 50 to 500 nM in assay [1], 500 to 2500 nM in assay [2] and 500 to 2500 nM at EGFR. The 50% growth inhibitory concentration (GI50) in the assay with HEK293 cells was 500 to 1500 nM.
In the case of `C=CC(=O)Nc1cc(Nc2nccc(-c3cn(C)c4ccccc34)n2)c(OC)cc1N(C)CCN(C)CCCN1CCN(CCCNC(=O)c2ccc(Nc3ncc4c(n3)N(C3CCCC3)[C@H](CC)C(=O)N4C)c(OC)c2)CC1` [Compound I-122, 4-[(8-cyclopentyl-7-ethyl-5-methyl-6-oxo-7H-pteridin-2-yl)amino]-3-methoxy-N-[3-[4-[3-[2-[5-methoxy-N-methyl-4-[[4-(1-methylindol-3-yl)pyrimidin-2-yl]amino]-2-(prop-2-enoylamino)anilino]ethyl-methyl-amino]propyl]piperazin-1-yl]propyl]benzamide], the Kd in assay [1] was less than 50 nM; in assay [2], 500 to 2500 nM; on EGFR it was 50 to 500 nM. The GI50 with HeLa cells and in the assay with HEK293 cells was 1500 to 5000 nM each time.
For `CC[C@@H]1C(=O)N(C)c2cnc(Nc3ccc(C(=O)NCCOCCOCCOCCOCCN(C)C/C=C/C(=O)Nc4cc(Nc5nccc(-c6cn(C)c7ccccc67)n5)c(OC)cc4N(C)CCN(C)C)cc3OC)nc2N1C1CCCC1` [Compound I-123, 4-[[(7R)-8-cyclopentyl-7-ethyl-5-methyl-6-oxo-7H-pteridin-2-yl]amino]-N-[2-[2-1[2-[2-[2-[[(E)-4-[2-1[2-(dimethylamino)ethyl-methyl-amino]-4-methoxy-5-[1[4-(1-methylindol-3-yl)pyrimidin-2-yl]amino]anilino]-4-oxo-but-2-enyl]-methyl-amino]ethoxy]ethoxy]ethoxy]ethoxy]ethyl]-3-methoxy-benzamide], the results for the Kd (in assay [1]; in assay [2]; on EGFR) were less than 50 nM, more than 2500 nM and more than 2500 nM, respectively. Further, the GI50 in the assay with HeLa cells and in the assay with HEK293 cells was 500 to 1500 nM each time.
For the molecule `C=CC(=O)N[C@@H]1CN(c2nc(Nc3cn(CCOCCOCCOCCOCCNC(=O)c4ccc(Nc5ncc6c(n5)N(C5CCCC5)[C@H](CC)C(=O)N6C)c(OC)c4)nc3OC)c3ncn(C)c3n2)C[C@H]1F` [Compound I-125], the values for the Kd (in assay [1]; in assay [2]; at EGFR) were less than 50 nM, 50 to 500 nM and 50 to 500 nM, respectively. The GI50 in the assay with HeLa cells was more than 5000 nM; in the assay with HEK293 cells, 1500 to 5000 nM.
Consider `CCC1C(=O)N(C)c2cnc(Nc3ccc(C(=O)NCCOCCOCCOCCOCCN(C)CC=CC(=O)NC4CN(c5nc(Nc6cn(C)nc6OC)c6ncn(C)c6n5)CC4F)cc3OC)nc2N1C1CCCC1` [Compound I-126, 4-[[(7R)-8-cyclopentyl-7-ethyl-5-methyl-6-oxo-7H-pteridin-2-yl]amino]-N-[2-[2-[2-[2-[2-[[(E)-4-[ [(3R,4R)-4-fluoro-1-1[6-1[(3-methoxy-1-methyl-pyrazol-4-yl)amino]-9-methyl-purin-2-yl]pyrrolidin-3-yl]amino]-4-oxo-but-2-enyl]-methyl-amino]ethoxy]ethoxy]ethoxy]ethoxy]ethyl]-3-methoxy-benzamide], for which the Kd was in the range of 50 to 500 nM in assay [1], 500 to 2500 nM in assay [2] and 500 to 2500 nM on EGFR. Further, the GI50 in the assay on HeLa cells is 500 to 1500 nM; in the assay with HEK293 cells, less than 500 nM.
Turning to `COc1cc(N(C)CCN(C)C)c(NC(=O)/C=C/CN(C)CCCN2CCN(CCCON(C)C(=O)N3N=C(c4cc(F)ccc4F)S[C@@]3(CCCN)c3ccccc3)CC2)cc1Nc1nccc(-c2cn(C)c3ccccc23)n1` [Compound I-146, (2S)-2-(3-aminopropyl)-5-(2,5-difluorophenyl)-N-[3-[4-1[3-[[(E)-4-1[2-[2-(dimethylamino)ethyl-methyl-amino]-4-methoxy-5-1[[4-(1-methylindol-3-yl)pyrimidin-2-yl]amino]anilino]-4-oxo-but-2-enyl]-methyl-amino]propyl]piperazin-1-yl]propoxy]-N-methyl-2-phenyl-1,3,4-thiadiazole-3-carboxamide], the Kd was less than 50 nM in assay [1], 500 to 2500 nM in assay [2] and 500 to 2500 nM at EGFR. For the same molecule, in the assay with HeLa cells, the GI50 is 500 to 1500 nM.
